Experimental data published in patent publication US11440884B2, “Compounds, salts thereof and methods for treatment of diseases” (ACADIA PHARMACEUTICALS INC., priority 2017, dated 2022).
pKi: −log10 of the molar value. Read-outs that look alike come from different tables or passages of the source.

Target: 5-HT2A receptor (Homo sapiens (Human), UniProt P28223)
Test: Receptor Selection and Amplification (R-SAT) functional antagonist assay;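 note: Read-out is β-galactosidase marker gene activity with ONPG substrate, measured after five days of growth in 96-well plates holding the test compound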
[1] = R-SAT, transfected NIH3T3 cells, guidance: high affinity pKi≥8.4, moderate affinity pKi≥7.7

Chain of 5-HT2A receptor (P28223 whole entry): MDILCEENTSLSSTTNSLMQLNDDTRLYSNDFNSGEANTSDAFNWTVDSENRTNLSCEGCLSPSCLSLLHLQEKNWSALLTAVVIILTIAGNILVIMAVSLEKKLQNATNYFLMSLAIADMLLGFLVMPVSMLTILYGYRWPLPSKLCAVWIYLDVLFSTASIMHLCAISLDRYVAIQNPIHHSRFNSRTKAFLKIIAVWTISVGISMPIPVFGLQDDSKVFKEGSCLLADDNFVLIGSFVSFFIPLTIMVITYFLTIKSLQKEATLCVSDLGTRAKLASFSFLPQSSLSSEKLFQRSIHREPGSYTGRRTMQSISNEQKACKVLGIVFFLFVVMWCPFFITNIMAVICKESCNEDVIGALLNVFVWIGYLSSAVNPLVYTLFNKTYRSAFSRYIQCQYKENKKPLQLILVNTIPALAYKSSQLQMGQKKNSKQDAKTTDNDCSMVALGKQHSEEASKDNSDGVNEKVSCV
Protocol: Receptor Selection and Amplification (R-SAT) Assays. […] For large-scale transfections, cells were transfected for 12-16 h, then trypsinized and frozen in DMSO. Frozen cells were later thawed, plated at 10,000-40,000 cells per well of a 96 well plate that contained a compound according to Formula (I). […] With both methods, cells were then grown in a humidified atmosphere with 5% ambient CO2 for five days. Media was then removed from the plates and marker gene activity was measured by the addition of the b-galactosidase substrate o-nitrophenyl b-D-galactopyranoside (ONPG, in PBS with 5% NP-40). […] All data were analyzed using the computer program XLFit (IDBSm).

| 5-HT2a pKi [1] | SMILES | other results |
| --- | --- | --- |
|  | CC(C)Oc1ccc(CC(=O)N(Cc2ccc(F)c(F)c2F)C2CCN(C)CC2)cc1.O=C(O)C(F)(F)F [Compound 34, N-(1-methylpiperidin-4-yl)-2-[4-(propan-2-yloxy)phenyl]-N-[(2,3,4-trifluorophenyl)methyl]acetamide; trifluoroacetic acid] | 5-HT2a pKi: 7.4 |
|  | CC(=O)O.COc1cc(F)c(CN(C(=O)OCc2ccc(OCC(C)C)cc2)C2CCN(C)CC2)c(F)c1 [Compound 36, [4-(2-methylpropoxy)phenyl]methyl N-[(2,6-difluoro-4-methoxyphenyl)methyl]-N-(1-methylpiperidin-4-yl)carbamate; acetic acid] | 5-HT2a pKi: 9.0 |
| 8.9 | CC(C)COc1ccc(COC(=O)N(Cc2ccc(F)c(F)c2F)C2CCN(C)CC2)cc1 [Compound 37, [4-(2-methylpropoxy)phenyl]methyl N-(1-methylpiperidin-4-yl)-N-[(2,3,4-trifluorophenyl)methyl]carbamate] |  |
| 9.3 | CC(C)Oc1ccc(COC(=O)N(Cc2ccc(Cl)cc2F)C2CCN(C)CC2)cc1 [Compound 38, [4-(propan-2-yloxy)phenyl]methyl N-[(4-chloro-2-fluorophenyl)-methyl]-N-(1-methylpiperidin-4-yl)carbamate] |  |
| 9.8 | CN1CCC(N(Cc2ccc(F)cc2F)C(=O)OCc2ccc(OCCF)cc2)CC1 [Compound 39, [4-(2-fluoroethoxy)phenyl]methyl N-[(2,4-difluorophenyl)methyl]-N-(1-methylpiperidin-4-yl)carbamate] |  |
|  | COc1ccc(CN(C(=O)OCc2ccc(OC(C)C)cc2)C2CCN(C)CC2)c(F)c1 [Compound 41, [4-(propan-2-yloxy)phenyl]methyl N-[(2-fluoro-4-methoxyphenyl)-methyl]-N-(1-methylpiperidin-4-yl)carbamate] | pKi: 8.60 |
| 8.0 | COC(=O)C(C)(C)CN1CCC(N(Cc2ccc(F)cc2F)C(=O)OCc2ccc(OC(C)C)cc2)CC1 [Compound 42, methyl 3-(4-{[(2,4-difluorophenyl)methyl]({[4-(propan-2-yloxy)phenyl]methoxy}carbonyl)amino}piperidin-1-yl)-2,2-dimethylpropanoate] |  |
| 8.5 | CC(C)Oc1ccc(COC(=O)N(Cc2ccc(F)cc2F)C2CCN(CC(C)(C)C(=O)O)CC2)cc1 [Compound 43, 3-(4-{[(2,4-difluorophenyl)methyl]({[4-(propan-2-yloxy)phenyl]-methoxy}carbonyl)amino}piperidin-1-yl)-2,2-dimethylpropanoic acid] |  |
| 9.4 | CCN1CCC(N(Cc2ccc(F)cc2F)C(=O)OCc2ccc(OC(C)C)cc2)CC1 [Compound 44, [4-(propan-2-yloxy)phenyl]methyl N-[(2,4-difluorophenyl)methyl]-N-(1-ethylpiperidin-4-yl)carbamate] |  |
| 8.6 | CC(C)Oc1ccc(COC(=O)N(Cc2ccc(F)cc2F)C2CCN(C3CC3)CC2)cc1 [Compound 45, [4-(propan-2-yloxy)phenyl]methyl N-(1-cyclopropylpiperidin-4-yl)-N-[(2,4-difluorophenyl)methyl]carbamate] |  |
| 7.6 | CC(C)Oc1ccc(COC(=O)N(Cc2ccc(F)cc2F)C2CCN(C3COC3)CC2)cc1 [Compound 46, [4-(propan-2-yloxy)phenyl]methyl N-[(2,4-difluorophenyl)methyl]-N-[1-(oxetan-3-yl)piperidin-4-yl]carbamate] |  |
| 8.1 | COc1ccc(CN(C(=O)Cc2ccc(OCC(C)C)cc2)C2CCN(C)CC2)c(F)c1 [Compound 47, N-[(2-fluoro-4-methoxyphenyl)methyl]-N-(1-methylpiperidin-4-yl)-2-[4-(2-methylpropoxy)phenyl]acetamide] |  |
| 7.4 | CC(C)Oc1ccc(/C=C/C(=O)N(Cc2ccc(F)cc2F)C2CCN(C)CC2)cc1 [Compound 48, (2E)-N-[(2,4-difluorophenyl)methyl]-N-(1-methylpiperidin-4-yl)-3-[4-(propan-2-yloxy)phenyl]prop-2-enamide] |  |
|  | CC(C)COc1ccc(CC(=O)N(Cc2ccc(Cl)cc2C(F)(F)F)C2CCN(C)CC2)cc1 [Compound 50, N-{[4-chloro-2-(trifluoromethyl)phenyl]methyl}-N-(1-methylpiperidin-4-yl)-2-[4-(2-methylpropoxy)phenyl]acetamide; trifluoroacetic acid] | pKi: 3.70 |
|  | Cc1cc(F)ccc1CN(C(=O)OCc1ccc(OC(C)C)cc1)C1CCN(C)CC1.O=C(O)C(F)(F)F [Compound 56, [4-(propan-2-yloxy)phenyl]methyl N-[(4-fluoro-2-methylphenyl)-methyl]-N-(1-methylpiperidin-4-yl)carbamate; trifluoroacetic acid] | 5-HT2a pKi: 7.8 |
|  | COc1ccc(CN(C(=O)OCc2ccc(OC(C)C)cc2)C2CCN(C)CC2)c(Cl)c1.O=C(O)C(F)(F)F [Compound 57, [4-(propan-2-yloxy)phenyl]methyl N-[(2-chloro-4-methoxy-phenyl)methyl]-N-(1-methylpiperidin-4-yl)carbamate; trifluoroacetic acid] | 5-HT2a pKi: 7.8 |
| 8.1 | CC(C)COc1ccc(COC(=O)N(Cc2ccc(F)cc2Cl)C2CCN(C)CC2)cc1 [Compound 58, [4-(2-methylpropoxy)phenyl]methyl N-[(2-chloro-4-fluorophenyl)methyl]-N-(1-methylpiperidin-4-yl)carbamate] |  |
| 8.4 | CC(C)Oc1ccc(COC(=O)N(Cc2ccc(F)cc2Cl)C2CCN(C)CC2)cc1 [Compound 63, [4-(propan-2-yloxy)phenyl]methyl N-[(2-chloro-4-fluorophenyl)-methyl]-N-(1-methylpiperidin-4-yl)carbamate] |  |
| 8.0 | CC(C)COc1ccc(COC(=O)N(Cc2ccc(Cl)cc2Cl)C2CCN(C)CC2)cc1 [Compound 64, [4-(2-methylpropoxy)phenyl]methyl N-[(2,4=dichlorophenyl)methyl]-N-(1-methylpiperidin-4-yl)carbamate] |  |
| 7.7 | Cc1ccc(F)c(CN(C(=O)OCc2ccc(OC(C)C)cc2)C2CCN(C)CC2)c1F [Compound 65, [4-(propan-2-yloxy)phenyl]methyl N-[(2,6-difluoro-3-methylphenyl)methyl]-N-(1-methylpiperidin-4-yl)carbamate] |  |
| 8.4 | CC(C)Oc1ccc(COC(=O)N(Cc2c(F)ccc(F)c2F)C2CCN(C)CC2)cc1 [Compound 66, [4-(propan-2-yloxy)phenyl]methyl N-(1-methylpiperidin-4-yl)-N-[(2,3,6-trifluorophenyl)methyl]carbamate] |  |
| 10.0 | Cc1c(F)ccc(CN(C(=O)OCc2ccc(OC(C)C)cc2)C2CCN(C)CC2)c1F [Compound 67, [4-(propan-2-yloxy)phenyl]methyl N-[(2,4-difluoro-3-methylphenyl)methyl]-N-(1-methylpiperidin-4-yl)carbamate] |  |
| 7.3 | Cc1ccc(CN(C(=O)OCc2ccc(OC(C)C)cc2)C2CCN(C)CC2)c(F)c1 [Compound 68, [4-(propan-2-yloxy)phenyl]methyl N-[(2-fluoro-4-methylphenyl)-methyl]-N-(1-methylpiperidin-4-yl)carbamate] |  |
|  | CC(C)COc1ccc(CC(=O)N(Cc2ccc(C(F)(F)F)cc2F)C2CCN(C)CC2)cc1.O=C(O)C(F)(F)F [Compound 69] | 5-HT2a pKi: 7.7 |
|  | CN1CCC(N(Cc2ccc(F)cc2F)C(=O)OCc2ccc(OC(C)(C)C)cc2)CC1.O=C(O)C(F)(F)F [Compound 72] | 5-HT2a pKi: 10.0 |
|  | CN1CCC(N(Cc2ccc(F)cc2F)C(=O)OCc2ccc(C(C)(F)F)cc2)CC1.O=C(O)C(F)(F)F [Compound 73] | 5-HT2a pKi: 9.4 |

| SMILES | 5-HT2a pKi [1] | other results |
| --- | --- | --- |
| CCCCOc1ccc(COC(=O)N(Cc2ccc(F)cc2F)C2CCN(C)CC2)cc1 [Compound 40, (4-butoxyphenyl)methyl N-[(2,4-difluorophenyl)methyl]-N-(1-methylpiperidin-4-yl)carbamate] | 8.9 |  |
| CC(C)COc1ccc(CC(=O)N(Cc2ccc(F)cc2OC(F)(F)F)C2CCN(C)CC2)cc1.O=C(O)C(F)(F)F [Compound 51, N-{[4-fluoro-2-(trifluoromethoxy)phenyl]methyl}-N-(1-methyl-piperidin-4-yl)-2-[4-(2-methylpropoxy)phenyl]acetamide; trifluoroacetic acid] | 6.7 |  |
| Cc1cc(F)ccc1CN(C(=O)Cc1ccc(OCC(C)C)cc1)C1CCN(C)CC1.O=C(O)C(F)(F)F [Compound 52, N-[(4-fluoro-2-methylphenyl)methyl]-N-(1-methylpiperidin-4-yl)-2-[4-(2-methylpropoxy)phenyl]acetamide; trifluoroacetic acid] | 6.7 |  |
| COc1ccc(CN(C(=O)Cc2ccc(OCC(C)C)cc2)C2CCN(C)CC2)c(Cl)c1.O=C(O)C(F)(F)F [Compound 53, N-[(2-chloro-4-methoxyphenyl)methyl]-N-(1-methylpiperidin-4-yl)-2-[4-(2-methylpropoxy)phenyl]acetamide; trifluoroacetic acid] | 6.9 |  |
| CC(C)COc1ccc(CC(=O)N(Cc2ccc(Cl)cc2Cl)C2CCN(C)CC2)cc1.O=C(O)C(F)(F)F [Compound 59, N-[(2,4-dichlorophenyl)methyl]-N-(1-methylpiperidin-4-yl)-2-[4-(2-methylpropoxy)phenyl]acetamide; trifluoroacetic acid] | 6.6 |  |
| CC(C)Oc1ccc(CC(=O)N(Cc2ccc(Cl)cc2Cl)C2CCN(C)CC2)cc1.O=C(O)C(F)(F)F [Compound 60, N-[(2,4-dichlorophenyl)methyl]-N-(1-methylpiperidin-4-yl)-2-[4-(propan-2-yloxy)phenyl]acetamide; trifluoroacetic acid] | 6.5 |  |
| CC(C)COc1ccc(CC(=O)N(Cc2ccc(F)cc2Cl)C2CCN(C)CC2)cc1.O=C(O)C(F)(F)F [Compound 61, N-[(2-chloro-4-fluorophenyl)methyl]-N-(1-methylpiperidin-4-yl)-2-[4-(2-methylpropoxy)phenyl]acetamide; trifluoroacetic acid] | 6.7 |  |
| CC(C)Oc1ccc(CC(=O)N(Cc2ccc(F)cc2Cl)C2CCN(C)CC2)cc1.O=C(O)C(F)(F)F [Compound 62, N-[(2-chloro-4-fluorophenyl)methyl]-N-(1-methylpiperidin-4-yl)-2-[4-(propan-2-yloxy)phenyl]acetamide; trifluoroacetic acid] | 6.5 |  |
